Results: patent US20100034832A1, “METHODS FOR MANIPULATING STEM CELLS” (THE GENERAL HOSPITAL CORPORATION, priority 2006, published 2010)
Read-outs that look alike come from different tables or passages of the source.

Experiments:
[1] = tested on: PB leucocyte count; experiment: 5-fluorouracil (5FU) BM injury model, PB counts; type: in vivo, mouse; conditions: single 150 mg/kg 5FU intraperitoneally
Experimental: Similar results were obtained when mice were subjected to BM injury using 5-fluorouracil (5FU) (data not shown). In the 5FU injury model, 150 mg/kg mouse weight 5FU was injected intraperitoneally at day 0 PB was obtained through tail vein bleeding for analysis weekly starting day 0 (n=10 per group).
Next, we examined the role of P2Y14 in long-term hematopoietic recovery from BM injury. The mice were subjected to a single injection of 5FU and followed the peripheral blood (PB) leucocyte counts as well as PB granulocyte, B cell and T cell content by flow cytometry.
Med. 6, 1235-1240 (2000).

[2] = tested on: immature HSC fraction of the BM; conditions: 200 mg/kg CTX intraperitoneally, day 4
Experimental: In the CIX injury model, either sterile PBS or CTX at final concentration of 200 mg/kg mouse weight was injected intraperitoneally. At day 4 after injection, mice were euthanized and BM was obtained from femurs and tibiae of each mouse (n=5 per group).
Apoptosis was measured by AnnexinV and 7AAD staining as previously described Cheng, T. et al. Nat. Med. 6, 1235-1240 (2000).

| Compound | persistence of greater than normal granulocyte (Gr-1+) count rebound ([1]; P2Y14-/- mice) | nadir of total PB leucocyte count ([1]; both -/- and +/+ mice) [days] | peak of rebound leucocytosis ([1]; both -/- and +/+ mice) [days] | return to baseline leucocyte count ([1]; both -/- and +/+ mice) | immature HSC fraction of the BM (% LKS+, % CD34lo/-LKS+) ([2]; P2Y14-/- mice) | apoptosis in the immature HSC fraction ([2]; P2Y14-/- mice, AnnexinV and 7AAD) | immature HSC fraction of the BM (% LKS+, % CD34lo/-LKS+) ([2]; wildtype mice) |
| --- | --- | --- | --- | --- | --- | --- | --- |
| O=c1[nH]cc(F)c(=O)[nH]1 [5FU, 5-fluorouracil] | up to 9 weeks | 7 | 14 | 3-4 weeks post-injection | – | – | – |
| O=P1(N(CCCl)CCCl)NCCCO1 (stereo not shown) [CTX, cyclophosphamide] | – | – | – | – | loss of enrichment for immature HSC fraction | increased apoptosis | enrichment of immature HSC fraction |
